Each block holds one molecule with its values, some of them ahead of it.
Tests used:
RNA versus DNA = assay: Screening of fluorescence properties and relative fluorescence enhancement with RNA versus DNA (Table 3); type: binding; settings: for Fluorescence Enhancement Ratio (RNA/DNA): fluorescence enhancement when associated with RNA to that when associated with DNA
[1] = test system: Bovine pulmonary arterial endothelial cells; assay: Cell permeability and nucleic acid label pattern with a concentration series in live cells (Example 43); type: cell-based
Experimental: Bovine pulmonary arterial endothelial cells were grown in media for one day after plating on coverslips, then labeled with 50 nM MitoTracker Red CMXRos (Molecular Probes, Inc., M7512) in Hank's balanced salt solution (HBSS) with HEPES for general mitochondrial labeling. After washing in HBSS, cells were then labeled with Compound 1 at various concentrations ranging from 100 nM up to 10 μM in media for 20 minutes at 37°. Cells were washed well with HBSS. Coverslips were examined mounted in warm HBSS on a Nikon Eclipse 800 upright fluorescent microscope and imaged with a FITC filter set, a Princeton Instruments MicroMax cooled CCD camera, and Universal Imaging MetaMorph imaging software. […] The mtDNA signal was localized within mitochondria, as evidenced by MitoTracker Red labeling.

[2] = test system: Gram-positive (Staphylococcus aureus) and Gram-negative (Eshcerichia coli) bacteria; assay: Rifampicin-depletion of bacterial RNA, flow cytometry and microplate reader (Example 37); type: cell-based; settings: for fluorescent signal of rifampicin treated versus untreated bacteria: 25 μg/mL rifampicin one hour, compound 0.25, 0.5 or 1 μM, 10-15 minutes
Experimental: Gram-positive (Staphylococcus aureus) and Gram-negative (Eshcerichia coli) bacteria in growth medium were treated with 25 μg/mL rifampicin for one hour. Treated and untreated bacteria were counted, diluted to 1×10^7 bacteria/mL in 0.85% NaCl, and 1 mL aliquots incubated with 0.25 μM, 0.5 μM, or 1 μM Compound 6 or Compound 9 for 10-15 minutes protected from light. The samples were analyzed by flow cytometry and then 100 μL volumes were transferred to a microplate in triplicate and analyzed by a microplate reader. The fluorescence intensity was corrected against the dye in solution, which was weakly fluorescent.

[3] = test system: Bovine pulmonary arterial endothelial cells; assay: Nucleic acid binding after RNase and DNase on methanol-fixed eukaryotic cells (Example 38); type: cell-based
Experimental: (§1) Bovine pulmonary arterial endothelial cells were grown in media for one day after plating and then fixed ten minutes in 100% methanol at −20° C. Cells were washed 3×5 minutes in PBT (0.05M phosphate-buffered saline (PBS) containing 0.1% Triton X-100) and then treated with RNase (from Roche, at 1:500 dilution) or DNase (from Promega, at 1:100 dilution) for 2 hours at 37° C. Cells were washed again for 3×5 minutes in PBT and then labeled with Compound 6 at 687 nM concentration for 20 minutes. Cells were washed 3×10 minutes in PBS and mounted on microscope slides in ProLong antifade mounting medium. After the mountant had hardened, slides were examined on a Nikon Eclipse 800 upright fluorescent microscope and imaged with a FITC filter set, a Princeton Instrument MicroMax cooled CCD camera, and Universal Imaging MetaMorph imaging software. […] See, FIG. 4.

[4] = test system: Bovine pulmonary arterial endothelial cells; assay: Nucleic acid binding on RNase and DNase treated formaldehyde-fixed eukaryotic cells (Example 39); type: cell-based; settings: Compound 6 687 nM, Compound 19 1 μM
Experimental: as §1, with “fixed fifteen” for “fixed ten”, “in 4% paraformaldehyde.” for “in 100% methanol at −20° C.”, “1:100 dilution), or both” for “1:100 dilution)”, “concentration or Compound 19 at 1 μM concentration in PBS” for “concentration”, “mounting medium (Molecular Probes, Inc.).” for “mounting medium.”, “FIG. 5.” for “FIG. 4.”

[5] = test system: Bovine pulmonary arterial endothelial cells; assay: Nucleic acid binding in live eukaryotic cells followed by fixing of cells (Example 40); type: cell-based
Experimental: Bovine pulmonary arterial endothelial cells were grown in media for one day after plating and then labeled before fixing with 687 nM Compound 6 for 20 minutes. Some cells were rinsed in media and separated for live imaging. The other cells were rinsed twice with media and then fixed in 4% paraformaldehyde for 15 minutes at room temperature, 0.5% glutaraldehyde for 5 minutes at room temperature, or 100% methanol for 10 minutes at −20° C. Cells were washed 3×10 minutes in phosphate-buffered saline and mounted on microscope slides in ProLong antifade mounting medium (Molecular Probes, Inc.). After the mountant had hardened, slides were examined on a Nikon Eclipse 800 upright fluorescent microscope and imaged with a FITC filter set, a Princeton Instrument MicroMax cooled CCD camera, and Universal Imaging MetaMorph imaging software. […] Fixation with either paraformaldehyde or glutaraldehyde removed all mitochondrial labeling. Nucleolar label remained, but nuclear label increased. […] Methanol-fixation had good nucleolar labeling, with only a slight increase in nuclear labeling. All mitochondrial labeling was removed. Cytoplasmic label increased slightly, but not nearly to the extent seen with other fixation. Results generally indicate that methanol-fixation is the recommended fixation technique.

[6] = test system: Bovine pulmonary arterial endothelial cells; assay: Nucleic acid binding in methanol-fixed eukaryotic cells (Example 42); type: cell-based
Experimental: Bovine pulmonary arterial endothelial cells were grown in media for one day after plating on coverslips and then fixed 10 minutes in −20° C. 100% methanol. Cells were washed 3×5 minutes 50 mM phosphate buffered saline (PBS), pH 7.3. Cells were labeled with Compound 11 at 5 μM, 1 μM, or 500 nM concentration in PBS for 20 minutes, washed 3×10 minutes in PBS, and mounted in ProLong antifade mountant (Molecular Probes, Inc.). Cells were labeled with Compound 6 at 500 nM in PBS for 20 minutes. After the mountant had hardened, slides were examined on a Nikon Eclipse 800 upright fluorescent microscope and imaged with a blue-green filter set, a Princeton Instruments MicroMax cooled CCD camera, and Universal Imaging MetaMorph imaging software. Comparison of emission wavelength was made using a Zeiss 510 confocal microscope utilizing a META spectral unmixing system. […] Optimal labeling for both compounds appeared to be about […]. […] See, FIG. 6.

[7] = methanol fixed cells, cytoplasm, nucleus and nucleolus (FIG. 4)
[8] = methanol-fixed, compound 687 nM
[9] = methanol-fixed, compound 687 nM, by eye

concentration at which mitochondrial morphology was disrupted ([1]; as evidenced with MitoTracker Red): ≥ 3 μM
SMILES: C[n+]1c(/C=C2\C=C(SCCCCCCCCCSC3=C/C(=C\c4sc5ccccc5[n+]4C)c4ccccc4N3c3ccccc3)N(c3ccccc3)c3ccccc32)sc2ccccc21 [Compound 1]
Fluorescence Enhancement Ratio (RNA/DNA) (RNA versus DNA): 1.0
staining pattern at 1 μM ([1]; 20 minutes at 37°): nuclear labeling was seen as well as mtDNA
staining pattern at 3 μM or higher ([1]; 20 minutes at 37°): mtDNA labeling was lost, replaced with ubiquitous cytoplasmic labeling and strong nuclear labeling
staining pattern at 100 nM to 500 nM ([1]; 20 minutes at 37°, MitoTracker Red co-label): mitochondrial DNA (mtDNA), with no nuclear label, or cytoplasmic background

SMILES: C[n+]1c(/C=C2\C=C(N3CCN(C4=C/C(=C\c5sc6ccccc6[n+]5C)c5ccccc5N4c4ccccc4)CC3)N(c3ccccc3)c3ccccc32)sc2ccccc21.[Cl-].[Cl-] [Compound 6]
Fluorescence Enhancement Ratio (RNA/DNA) (RNA versus DNA): 7.0
fluorescent signal of rifampicin treated versus untreated bacteria [2]: decrease in fluorescent signal after removal of mRNA
signal intensity on RNA versus DNA in S. aureus cells with and without rifampicin ([2]; S. aureus, compound 0.25, 0.5 and 1 μM): stronger signal intensity when bound to RNA
signal intensity of DNase treated cells [3, 7]: no decrease in signal intensity
signal intensity of RNase treated cells [3, 7]: significant reduction in signal intensity
nuclear labeling after DNase [3, 8]: not DNase
nuclear labeling after RNase [3, 8]: significantly reduced by RNase
nucleolar intensity after DNase ([3]; methanol-fixed, compound 687 nM, DNase 2 hours 37° C.): did not significantly affect
labeling of nucleoli after RNase ([3]; methanol-fixed, compound 687 nM, RNase 2 hours 37° C.): eliminated
cytoplasmic label after DNase [3, 9]: not DNase
cytoplasmic label after RNase [3, 9]: reduced by RNase
cytoplasmic label after DNase [4]: significantly reduced by both RNase and DNase
cytoplasmic label after RNase [4]: significantly reduced by both RNase and DNase
labeling of nucleoli after RNase [4]: eliminated
nuclear labeling after DNase [4]: significantly reduced by both RNase and DNase
nuclear labeling after RNase [4]: significantly reduced by both RNase and DNase
nucleolar intensity after DNase [4]: significantly reduced
labeling pattern in live cells ([5]; 687 nM, 20 minutes, live imaging): strong nucleolar label, strong punctate labeling in mitochondria consistent with mtDNA, and dimmer ubiquitous mitochondrial labeling
labeling pattern after fixation with paraformaldehyde or glutaraldehyde ([5]; labeled live at 687 nM, then 4% paraformaldehyde or 0.5% glutaraldehyde): removed all mitochondrial labeling. Nucleolar label remained, but nuclear label increased. General cytoplasmic labeling also increased significantly
labeling pattern after methanol-fixation ([5]; labeled live at 687 nM, then 100% methanol 10 minutes −20° C.): good nucleolar labeling, with only a slight increase in nuclear labeling. All mitochondrial labeling was removed. Cytoplasmic label increased slightly
concentration of peak emission in detection of intracellular nucleic acid ([6]; FIG. 6): 500 nM
optimal labeling concentration ([6]; methanol-fixed cells): about 500 μM
staining pattern ([6]; methanol-fixed, Compound 11 5 μM, 1 μM or 500 nM, Compound 6 500 nM, 20 minutes): strong nucleolar and cytoplasmic labeling, with dimmer nuclear labeling, indicating selective RNA staining

SMILES: C[n+]1c(/C=C2\C=C(Sc3nnc(SC4=C/C(=C\c5sc6ccccc6[n+]5C)c5ccccc5N4c4ccccc4)s3)N(c3ccccc3)c3ccccc32)sc2ccccc21.[Cl-].[Cl-] [Compound 7]
Fluorescence Enhancement Ratio (RNA/DNA) (RNA versus DNA): 2.3

SMILES: CN1/C(=C\c2c/c(=N/C3CCC(/N=c4/cc(/C=C5/Sc6ccccc6N5C)c5ccccc5n4-c4ccccc4)CC3)n(-c3ccccc3)c3ccccc23)Sc2ccccc21 (centres unmarked) [Compound 8]
Fluorescence Enhancement Ratio (RNA/DNA) (RNA versus DNA): 4.9

SMILES: CN1/C(=C\c2c/c(=N/N3CCN(/N=c4/cc(/C=C5/Sc6ccccc6N5C)c5ccccc5n4-c4ccccc4)CC3)n(-c3ccccc3)c3ccccc23)Sc2ccccc21 [Compound 9]
Fluorescence Enhancement Ratio (RNA/DNA) (RNA versus DNA): 1.7
fluorescent signal of rifampicin treated versus untreated bacteria [2]: decrease in fluorescent signal after removal of mRNA

SMILES: C[n+]1c(/C=C2\C=C(N(CCC[N+](C)(C)C)CCC[N+](C)(C)C)N(CCCCCCCCCCN3C(N(CCC[N+](C)(C)C)CCC[N+](C)(C)C)=C/C(=C\c4sc5ccccc5[n+]4C)c4ccccc43)c3ccccc32)sc2ccccc21.Cl.Cl [Compound 13]
Fluorescence Enhancement Ratio (RNA/DNA) (RNA versus DNA): 2.5

SMILES: C[n+]1c(/C=C2\C=C(N3CCNCCN(C4=C/C(=C\c5sc6ccccc6[n+]5C)c5ccccc5N4c4ccccc4)CCNCC3)N(c3ccccc3)c3ccccc32)sc2ccccc21.[Cl-].[Cl-] [Compound 15]
Fluorescence Enhancement Ratio (DNA/RNA) (RNA versus DNA; fluorescence enhancement when associated with DNA to that when associated with RNA): 3.7

SMILES: C[n+]1c(/C=C/C=C2/C=CN(c3ccccc3)C(N3CCN(C4=C/C(=C\C=C\c5sc6ccccc6[n+]5C)C=CN4c4ccccc4)CC3)=C2)sc2ccccc21 [Compound 18]
Fluorescence Enhancement Ratio (RNA/DNA) (RNA versus DNA): 1.3

SMILES: COc1ccc2c(c1)N(c1ccccc1)C(N1CCN(C3=C/C(=C\c4sc5ccccc5[n+]4C)c4ccc(OC)cc4N3c3ccccc3)CC1)=C/C2=C\c1sc2ccccc2[n+]1C.[I-].[I-] [Compound 19]
Fluorescence Enhancement Ratio (RNA/DNA) (RNA versus DNA): 4.9
cytoplasmic label after DNase [4]: not reduced at all
cytoplasmic label after RNase [4]: not reduced at all
labeling of nucleoli after RNase [4]: eliminated
nuclear labeling after DNase [4]: not DNase
nuclear labeling after RNase [4]: significantly reduced with RNase
nucleolar intensity after DNase [4]: significantly reduced

SMILES: CN1/C(=C\c2ccn(-c3ccccc3)/c(=N\N3CCN(/N=c4/cc(/C=C5/Sc6ccccc6N5C)c5ccccc5n4-c4ccccc4)CC3)c2)Sc2ccccc21 [Compound 25]
Fluorescence Enhancement Ratio (RNA/DNA) (RNA versus DNA): 5.6

SMILES: N=C(N)c1ccc(-c2cc3ccc(C(=N)N)cc3[nH]2)cc1 [DAPI, reference compound]
label intensity of DNA label control after nuclease treatment ([3]; control to test the activity of the DNase, printed as treated with RNase): significant decline in label intensity

— patent US8242251B2, “Unsymmetrical cyanine dimer compounds and their application” (Life Technologies Corporation, priority 2003, dated 2012)
